Experimental data reported in publication PMC5564600 (Oncotarget, 2017).

What was measured:
Assay in all cases: biochemical
Type in all cases: binding
panel of 442 kinases [1] = target: T1, panel of 442 kinases (Homo sapiens, UniProt Q05397); conditions: FAK; for remaining activity at 1 µM: read-out: % of control at 1 µM
T1 construct: purchased Ambit Biosciences (scanMAXX KINOMEscan)

panel of 442 kinases [2] = target: T2, panel of 442 kinases (Homo sapiens, UniProt Q8TDR2); conditions: kinase STK35; for remaining activity at 1 µM: read-out: STK35 (% of control at 1 µM)
T2 construct: purchased Ambit Biosciences (scanMAXX KINOMEscan)

panel of 442 kinases [3] = target: T3, panel of 442 kinases (Homo sapiens, UniProt P51817); conditions: kinase PRKX; for remaining activity at 1 µM: read-out: PRKX (% of control at 1 µM)
T3 construct: purchased Ambit Biosciences (scanMAXX KINOMEscan)
T3 sequence (P51817 1-358): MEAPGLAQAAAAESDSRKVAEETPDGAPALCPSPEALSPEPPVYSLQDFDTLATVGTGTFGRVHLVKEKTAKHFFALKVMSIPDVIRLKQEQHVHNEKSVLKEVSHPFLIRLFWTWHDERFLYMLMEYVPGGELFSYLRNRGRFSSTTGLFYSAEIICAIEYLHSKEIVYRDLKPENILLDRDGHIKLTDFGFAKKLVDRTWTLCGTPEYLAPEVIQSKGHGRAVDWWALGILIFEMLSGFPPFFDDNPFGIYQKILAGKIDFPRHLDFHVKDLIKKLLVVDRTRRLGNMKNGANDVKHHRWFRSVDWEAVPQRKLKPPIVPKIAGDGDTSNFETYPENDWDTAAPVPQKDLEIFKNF

panel of 442 kinases [4] = target: T4, panel of 442 kinases (Homo sapiens, UniProt P10721); conditions: kinase KIT; for remaining activity at 1 µM: read-out: % of control at 1 µM
T4 construct: purchased Ambit Biosciences (scanMAXX KINOMEscan)

panel of 442 kinases [5] = target: T5, panel of 442 kinases (Homo sapiens, UniProt P00533, G719S); conditions: EGFR(G719S); for remaining activity at 1 µM: read-out: % of control at 1 µM
T5 construct: purchased Ambit Biosciences (scanMAXX KINOMEscan)
T5 sequence (P00533 25-1210 G719S): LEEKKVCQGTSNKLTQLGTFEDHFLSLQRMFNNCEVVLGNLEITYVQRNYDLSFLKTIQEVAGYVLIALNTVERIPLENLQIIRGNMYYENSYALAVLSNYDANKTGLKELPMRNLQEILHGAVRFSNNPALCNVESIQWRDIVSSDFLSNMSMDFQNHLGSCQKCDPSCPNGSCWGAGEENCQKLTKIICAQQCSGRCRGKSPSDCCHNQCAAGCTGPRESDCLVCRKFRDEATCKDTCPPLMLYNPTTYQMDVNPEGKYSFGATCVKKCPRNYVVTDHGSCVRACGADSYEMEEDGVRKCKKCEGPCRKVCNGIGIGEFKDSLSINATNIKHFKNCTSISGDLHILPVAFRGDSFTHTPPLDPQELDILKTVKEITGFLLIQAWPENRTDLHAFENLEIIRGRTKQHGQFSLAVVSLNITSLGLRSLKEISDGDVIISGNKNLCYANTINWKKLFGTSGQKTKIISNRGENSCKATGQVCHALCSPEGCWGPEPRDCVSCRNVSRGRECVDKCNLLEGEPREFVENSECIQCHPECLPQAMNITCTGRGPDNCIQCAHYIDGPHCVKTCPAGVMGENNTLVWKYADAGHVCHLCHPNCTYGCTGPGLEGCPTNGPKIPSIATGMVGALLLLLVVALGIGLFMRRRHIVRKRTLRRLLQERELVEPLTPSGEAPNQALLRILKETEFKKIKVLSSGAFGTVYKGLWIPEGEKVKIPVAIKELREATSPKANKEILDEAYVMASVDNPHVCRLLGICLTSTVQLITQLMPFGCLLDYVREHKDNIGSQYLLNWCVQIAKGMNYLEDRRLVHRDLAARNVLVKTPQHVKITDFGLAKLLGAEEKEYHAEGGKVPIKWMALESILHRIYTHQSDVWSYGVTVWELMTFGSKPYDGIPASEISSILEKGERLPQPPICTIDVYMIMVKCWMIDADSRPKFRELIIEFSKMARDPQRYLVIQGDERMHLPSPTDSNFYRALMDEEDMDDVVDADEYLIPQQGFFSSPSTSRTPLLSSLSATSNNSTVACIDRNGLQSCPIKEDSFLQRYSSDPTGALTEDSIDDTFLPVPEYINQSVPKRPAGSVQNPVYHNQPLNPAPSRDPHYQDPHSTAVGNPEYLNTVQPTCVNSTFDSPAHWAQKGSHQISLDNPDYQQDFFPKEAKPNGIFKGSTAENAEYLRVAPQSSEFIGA

panel of 442 kinases [6] = target: T6, panel of 442 kinases (Homo sapiens, UniProt P35916); conditions: kinase FLT4; for remaining activity at 1 µM: read-out: % of control at 1 µM
T6 construct: purchased Ambit Biosciences (scanMAXX KINOMEscan)
T6 sequence (P35916 25-1363): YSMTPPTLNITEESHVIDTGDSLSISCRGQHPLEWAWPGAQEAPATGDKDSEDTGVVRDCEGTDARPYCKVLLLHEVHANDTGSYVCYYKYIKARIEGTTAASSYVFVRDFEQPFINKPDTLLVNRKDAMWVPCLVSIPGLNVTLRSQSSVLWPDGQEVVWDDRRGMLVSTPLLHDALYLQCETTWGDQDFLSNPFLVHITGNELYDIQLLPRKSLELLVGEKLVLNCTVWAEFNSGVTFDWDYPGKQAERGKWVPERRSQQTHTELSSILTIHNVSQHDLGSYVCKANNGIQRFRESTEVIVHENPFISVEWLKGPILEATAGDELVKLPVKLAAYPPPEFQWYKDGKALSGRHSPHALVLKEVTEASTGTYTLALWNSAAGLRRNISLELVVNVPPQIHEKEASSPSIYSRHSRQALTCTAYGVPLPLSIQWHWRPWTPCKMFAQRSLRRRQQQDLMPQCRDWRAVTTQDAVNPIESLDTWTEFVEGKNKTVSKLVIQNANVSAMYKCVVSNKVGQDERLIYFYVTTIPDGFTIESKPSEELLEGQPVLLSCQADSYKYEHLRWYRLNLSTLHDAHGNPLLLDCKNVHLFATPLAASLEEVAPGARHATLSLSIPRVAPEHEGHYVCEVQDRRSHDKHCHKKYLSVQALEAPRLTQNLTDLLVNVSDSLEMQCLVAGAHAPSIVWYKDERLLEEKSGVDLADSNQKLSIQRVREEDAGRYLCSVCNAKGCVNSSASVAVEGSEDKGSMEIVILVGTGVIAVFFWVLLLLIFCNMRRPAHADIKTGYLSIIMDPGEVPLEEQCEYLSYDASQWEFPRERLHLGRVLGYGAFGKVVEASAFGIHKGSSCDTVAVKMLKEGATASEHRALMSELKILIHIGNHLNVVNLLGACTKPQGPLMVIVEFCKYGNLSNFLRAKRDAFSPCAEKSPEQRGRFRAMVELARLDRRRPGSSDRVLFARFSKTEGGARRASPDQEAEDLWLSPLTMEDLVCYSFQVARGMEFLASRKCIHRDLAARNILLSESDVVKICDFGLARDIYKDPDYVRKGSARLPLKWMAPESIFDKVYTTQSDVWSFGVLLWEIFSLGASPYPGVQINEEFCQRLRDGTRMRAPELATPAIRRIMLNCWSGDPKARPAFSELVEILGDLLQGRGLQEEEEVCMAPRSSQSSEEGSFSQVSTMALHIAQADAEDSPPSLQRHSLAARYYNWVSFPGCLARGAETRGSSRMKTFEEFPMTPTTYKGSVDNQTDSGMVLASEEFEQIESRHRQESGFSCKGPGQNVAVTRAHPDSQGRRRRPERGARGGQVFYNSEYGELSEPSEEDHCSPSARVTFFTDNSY

panel of 442 kinases [7] = target: T7, panel of 442 kinases (Homo sapiens, UniProt Q8NFD2); conditions: ANKK1; for remaining activity at 1 µM: read-out: % of control at 1 µM
T7 construct: purchased Ambit Biosciences (scanMAXX KINOMEscan)
T7 sequence (Q8NFD2 1-765): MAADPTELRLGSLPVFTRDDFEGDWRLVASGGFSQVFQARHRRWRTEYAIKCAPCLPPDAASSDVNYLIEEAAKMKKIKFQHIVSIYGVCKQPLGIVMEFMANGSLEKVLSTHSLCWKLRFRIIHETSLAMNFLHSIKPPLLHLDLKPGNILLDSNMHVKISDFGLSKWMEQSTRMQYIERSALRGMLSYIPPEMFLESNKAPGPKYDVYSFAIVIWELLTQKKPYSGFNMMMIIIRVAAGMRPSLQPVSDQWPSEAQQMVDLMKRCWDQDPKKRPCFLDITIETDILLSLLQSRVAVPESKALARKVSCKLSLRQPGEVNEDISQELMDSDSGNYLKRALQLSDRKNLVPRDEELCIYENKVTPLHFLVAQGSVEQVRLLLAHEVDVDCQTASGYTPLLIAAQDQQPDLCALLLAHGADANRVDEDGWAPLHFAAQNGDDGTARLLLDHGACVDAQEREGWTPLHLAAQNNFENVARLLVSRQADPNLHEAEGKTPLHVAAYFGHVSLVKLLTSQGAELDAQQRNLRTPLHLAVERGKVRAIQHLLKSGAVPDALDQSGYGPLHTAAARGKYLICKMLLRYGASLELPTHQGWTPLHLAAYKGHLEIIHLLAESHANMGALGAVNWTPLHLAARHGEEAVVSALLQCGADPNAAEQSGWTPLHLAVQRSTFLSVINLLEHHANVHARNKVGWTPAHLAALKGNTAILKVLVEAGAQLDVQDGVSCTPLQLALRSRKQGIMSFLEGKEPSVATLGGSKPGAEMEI

panel of 442 kinases [8] = target: T8, panel of 442 kinases (Homo sapiens, UniProt Q13153); conditions: kinase PAK1; for remaining activity at 1 µM: read-out: % of control at 1 µM
T8 construct: purchased Ambit Biosciences (scanMAXX KINOMEscan)
T8 sequence (Q13153 whole entry): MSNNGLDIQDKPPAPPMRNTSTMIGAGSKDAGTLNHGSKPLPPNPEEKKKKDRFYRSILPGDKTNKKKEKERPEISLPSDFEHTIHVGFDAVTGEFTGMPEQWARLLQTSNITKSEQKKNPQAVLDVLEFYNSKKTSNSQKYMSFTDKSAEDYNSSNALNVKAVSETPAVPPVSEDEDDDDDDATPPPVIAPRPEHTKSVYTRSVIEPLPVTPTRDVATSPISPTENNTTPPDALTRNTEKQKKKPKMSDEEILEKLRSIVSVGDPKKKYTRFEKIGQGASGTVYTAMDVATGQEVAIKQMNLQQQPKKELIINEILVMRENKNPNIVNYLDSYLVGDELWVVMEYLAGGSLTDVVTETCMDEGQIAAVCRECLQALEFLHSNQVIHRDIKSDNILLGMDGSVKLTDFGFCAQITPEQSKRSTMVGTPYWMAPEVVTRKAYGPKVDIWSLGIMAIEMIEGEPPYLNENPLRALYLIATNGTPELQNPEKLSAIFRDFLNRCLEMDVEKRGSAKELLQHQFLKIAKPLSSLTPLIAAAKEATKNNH

panel of 442 kinases [9] = target: T9, panel of 442 kinases (Homo sapiens, UniProt P27448); conditions: kinase MARK3; for remaining activity at 1 µM: read-out: % of control at 1 µM
T9 construct: purchased Ambit Biosciences (scanMAXX KINOMEscan)
T9 sequence (P27448 whole entry): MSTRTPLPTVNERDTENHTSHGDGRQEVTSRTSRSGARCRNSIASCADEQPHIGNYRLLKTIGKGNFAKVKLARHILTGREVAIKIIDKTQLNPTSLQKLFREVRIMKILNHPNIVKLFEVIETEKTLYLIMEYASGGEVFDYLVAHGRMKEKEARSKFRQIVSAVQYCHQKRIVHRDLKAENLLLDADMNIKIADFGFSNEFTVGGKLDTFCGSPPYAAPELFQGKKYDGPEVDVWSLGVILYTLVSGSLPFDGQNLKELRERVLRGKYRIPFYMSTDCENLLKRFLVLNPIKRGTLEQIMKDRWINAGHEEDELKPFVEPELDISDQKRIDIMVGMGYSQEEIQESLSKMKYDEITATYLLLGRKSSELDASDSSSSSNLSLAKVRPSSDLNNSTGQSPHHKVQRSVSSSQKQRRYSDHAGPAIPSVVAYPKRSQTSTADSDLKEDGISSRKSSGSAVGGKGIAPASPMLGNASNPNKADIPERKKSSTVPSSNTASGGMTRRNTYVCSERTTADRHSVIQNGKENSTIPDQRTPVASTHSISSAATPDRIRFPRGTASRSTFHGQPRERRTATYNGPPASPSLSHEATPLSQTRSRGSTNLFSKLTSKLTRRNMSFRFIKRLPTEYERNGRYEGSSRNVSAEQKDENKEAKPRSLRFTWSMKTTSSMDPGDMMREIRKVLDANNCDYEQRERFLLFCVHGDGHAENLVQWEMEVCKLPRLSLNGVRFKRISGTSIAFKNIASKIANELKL

panel of 442 kinases [10] = target: T10, panel of 442 kinases (Homo sapiens, UniProt Q59H18); conditions: kinase TNNI3K; for remaining activity at 1 µM: read-out: TNNI3K (% of control at 1 µM)
T10 construct: purchased Ambit Biosciences (scanMAXX KINOMEscan)
T10 sequence (Q59H18 1-835): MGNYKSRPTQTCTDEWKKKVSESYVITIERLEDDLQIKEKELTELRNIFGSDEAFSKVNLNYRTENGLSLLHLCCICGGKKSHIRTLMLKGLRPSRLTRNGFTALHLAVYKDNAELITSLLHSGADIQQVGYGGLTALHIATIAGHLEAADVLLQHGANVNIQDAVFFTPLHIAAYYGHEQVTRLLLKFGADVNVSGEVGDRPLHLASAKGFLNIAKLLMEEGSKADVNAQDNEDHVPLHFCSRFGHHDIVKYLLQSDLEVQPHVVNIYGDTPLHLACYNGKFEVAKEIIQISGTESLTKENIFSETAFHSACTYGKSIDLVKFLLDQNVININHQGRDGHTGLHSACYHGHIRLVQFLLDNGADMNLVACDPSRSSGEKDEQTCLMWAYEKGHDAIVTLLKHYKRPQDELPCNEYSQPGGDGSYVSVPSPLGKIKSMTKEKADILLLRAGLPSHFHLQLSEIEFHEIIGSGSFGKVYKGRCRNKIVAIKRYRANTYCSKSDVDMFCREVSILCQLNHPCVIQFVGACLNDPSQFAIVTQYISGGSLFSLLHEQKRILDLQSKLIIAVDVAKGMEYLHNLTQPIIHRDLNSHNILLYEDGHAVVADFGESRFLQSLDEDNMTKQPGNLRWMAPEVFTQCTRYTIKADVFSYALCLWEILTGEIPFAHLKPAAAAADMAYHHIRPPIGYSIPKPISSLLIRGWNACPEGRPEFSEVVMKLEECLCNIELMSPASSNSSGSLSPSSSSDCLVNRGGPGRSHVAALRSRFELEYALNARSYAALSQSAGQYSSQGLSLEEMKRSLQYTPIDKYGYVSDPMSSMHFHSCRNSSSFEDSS

[11] = 10 µM, read-out: % of control at 10 µM

T1 sequence (Q05397 whole entry): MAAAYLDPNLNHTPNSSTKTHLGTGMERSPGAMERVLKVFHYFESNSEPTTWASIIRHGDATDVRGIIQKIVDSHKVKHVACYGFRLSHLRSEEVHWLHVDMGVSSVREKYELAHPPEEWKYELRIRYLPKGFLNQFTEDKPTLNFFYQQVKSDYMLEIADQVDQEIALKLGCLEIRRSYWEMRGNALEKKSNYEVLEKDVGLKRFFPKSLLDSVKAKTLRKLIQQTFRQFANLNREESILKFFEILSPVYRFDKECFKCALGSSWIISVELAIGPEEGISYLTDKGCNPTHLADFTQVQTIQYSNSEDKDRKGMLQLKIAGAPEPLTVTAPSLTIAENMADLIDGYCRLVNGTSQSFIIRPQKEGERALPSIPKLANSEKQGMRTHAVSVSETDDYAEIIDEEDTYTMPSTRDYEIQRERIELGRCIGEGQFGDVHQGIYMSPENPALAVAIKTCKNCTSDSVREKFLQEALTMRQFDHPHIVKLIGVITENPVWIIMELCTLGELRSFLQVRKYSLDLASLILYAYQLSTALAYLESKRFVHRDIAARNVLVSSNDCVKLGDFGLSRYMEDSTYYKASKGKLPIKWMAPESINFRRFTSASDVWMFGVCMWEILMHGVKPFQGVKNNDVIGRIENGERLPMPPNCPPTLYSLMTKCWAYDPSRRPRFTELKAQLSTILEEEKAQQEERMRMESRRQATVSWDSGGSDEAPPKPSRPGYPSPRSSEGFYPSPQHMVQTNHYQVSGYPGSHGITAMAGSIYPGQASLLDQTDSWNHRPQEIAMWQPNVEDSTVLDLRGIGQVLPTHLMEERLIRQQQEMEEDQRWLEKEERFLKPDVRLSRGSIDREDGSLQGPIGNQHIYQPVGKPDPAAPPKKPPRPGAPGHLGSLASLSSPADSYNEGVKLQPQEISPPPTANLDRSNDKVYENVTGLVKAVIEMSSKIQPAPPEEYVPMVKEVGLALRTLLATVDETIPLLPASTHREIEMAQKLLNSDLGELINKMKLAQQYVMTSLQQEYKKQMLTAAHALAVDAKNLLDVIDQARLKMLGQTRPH

Compound | remaining activity at 1 µM (panel of 442 kinases [1]) | remaining activity at 10 µM (panel of 442 kinases [1]; [11]) | remaining activity at 1 µM (panel of 442 kinases [2]) | remaining activity at 10 µM (panel of 442 kinases [2]; 10 µM, read-out: STK35 (% of control at 10 µM)) | remaining activity at 1 µM (panel of 442 kinases [3]) | remaining activity at 10 µM (panel of 442 kinases [3]; 10 µM, read-out: PRKX (% of control at 10 µM)) | remaining activity at 1 µM (panel of 442 kinases [4]) | remaining activity at 10 µM (panel of 442 kinases [4]; [11]) | remaining activity at 1 µM (panel of 442 kinases [5]) | remaining activity at 10 µM (panel of 442 kinases [5]; [11]) | remaining activity at 1 µM (panel of 442 kinases [6]) | remaining activity at 10 µM (panel of 442 kinases [6]; [11]) | remaining activity at 1 µM (panel of 442 kinases [7]) | remaining activity at 10 µM (panel of 442 kinases [7]; [11]) | remaining activity at 1 µM (panel of 442 kinases [8]) | remaining activity at 10 µM (panel of 442 kinases [8]; [11]) | remaining activity at 1 µM (panel of 442 kinases [9]) | remaining activity at 10 µM (panel of 442 kinases [9]; [11]) | remaining activity at 1 µM (panel of 442 kinases [10]) | remaining activity at 10 µM (panel of 442 kinases [10]; 10 µM, read-out: TNNI3K (% of control at 10 µM))
Nc1cc(C(F)(F)F)c(-c2cc(N3CCOCC3)nc(N3CCOCC3)n2)cn1 [Buparlisib] | 100% | 100% | 99% | 98% | 100% | 100% | 89% | 66% | 100% | 95% | 99% | 100% | 91% | 94% | 100% | 96% | 97% | 100% | 100% | 100%
COc1ncc(-c2ccc3nccc(-c4ccnnc4)c3c2)cc1NS(=O)(=O)c1ccc(F)cc1F [Omipalisib] | 94% | – | 100% | – | 100% | – | 100% | – | 78% | – | 100% | – | 100% | – | 55% | – | 100% | – | 100% | –
FC(F)c1nc2ccccc2n1-c1nc(N2CCOCC2)nc(N2CCOCC2)n1 [ZSTK474, 2-(difluoromethyl)-1-[4,6-di(4-morpholinyl)-1,3,5-triazin-2-yl]-1H-benzimidazole] | 90% | – | 89% | – | 100% | – | 85% | – | 100% | – | 96% | – | 100% | – | 100% | – | 100% | – | 95% | –
Cn1c(=O)n(-c2ccc(C(C)(C)C#N)cc2)c2c3cc(-c4cnc5ccccc5c4)ccc3ncc21 [Dactolisib, 2-methyl-2-[4-(3-methyl-2-oxo-8-quinolin-3-yl-2,3-dihydroimidazo[4,5-c]quinolin-1-yl)-phenyl] propionitrile] | 90% | – | 73% | – | 77% | – | 63% | – | 99% | – | 100% | – | 100% | – | 100% | – | 100% | – | 76% | –
